Earlier results in US20120201914A1, “Method and Composition for Improving Animal Oral Health” (priority 2011, published 2012).

System: various oral pathogens, such as S. mutans, C. albicans, A. actinomycetemcomitans, F. nucleatum, and P. gingivalis
Conditions: against various oral pathogens; recent studies

| Compound | antibacterial activity |
| --- | --- |
| CC/C=C\C/C=C\C/C=C\CCCCCCCC(=O)O [ALA, α-linolenic acid] | antibacterial activities |
| CC/C=C\C/C=C\C/C=C\CCCCCCCC(=O)OCC [ALA-EE] | antibacterial activities |
| CC/C=C\C/C=C\C/C=C\CCCCCCCC(=O)OC [ALA-ME] | antibacterial activities |
| CC/C=C\C/C=C\C/C=C\C/C=C\C/C=C\C/C=C\CCC(=O)OCC [DHA-EE] | antibacterial activities |
| CC/C=C\C/C=C\C/C=C\C/C=C\C/C=C\C/C=C\CCC(=O)OC [DHA-ME] | antibacterial activities |
| CC/C=C\C/C=C\C/C=C\C/C=C\C/C=C\CCCC(=O)OCC [EPA-EE] | antibacterial activities |
| CC/C=C\C/C=C\C/C=C\C/C=C\C/C=C\CCCC(=O)OC [EPA-ME] | antibacterial activities |
